Data from ChEMBL document CHEMBL1128064, “Discovery of L-740,515, a potent thienopyridine cysLT1 receptor (LTD4 receptor) antagonist” (Bioorg Med Chem Lett, 1995).

Key:
[1] = target: Cysteinyl leukotriene receptor 1 (Cavia porcellus); assay: Inhibition of binding of [3H]LTD4 to guinea pig lung membrane
[2] = target: Cysteinyl leukotriene receptor 1 (Cavia porcellus); assay: Inhibition of binding of [3H]LTD4 to guinea pig lung membrane supplemented with 0.05% human serum albumin(HSA)
[3] = Bioavailability in squirrel monkey (dose 5 mg/kg); assay type: ADME, organism-based, Saimiri sciureus; settings: in vivo
[4] = target: T1, Cysteinyl leukotriene receptor 1 (Homo sapiens, UniProt Q9Y271); assay: Inhibition of binding of [ H]-LTD4 to DMSO differentiated U937 cell membranes; design: species or system U-937
T1 sequence (Q9Y271 whole entry): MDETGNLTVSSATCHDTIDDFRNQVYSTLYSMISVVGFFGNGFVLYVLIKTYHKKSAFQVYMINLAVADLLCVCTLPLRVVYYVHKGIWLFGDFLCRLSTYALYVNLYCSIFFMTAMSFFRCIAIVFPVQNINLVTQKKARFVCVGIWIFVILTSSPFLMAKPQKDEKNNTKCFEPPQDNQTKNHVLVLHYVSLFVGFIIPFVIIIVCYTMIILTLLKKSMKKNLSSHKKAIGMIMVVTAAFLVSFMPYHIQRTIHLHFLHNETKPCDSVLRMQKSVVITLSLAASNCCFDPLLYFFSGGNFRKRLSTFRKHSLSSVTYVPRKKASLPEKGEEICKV

[5] = Clearance was estimated in two squirrel monkeys after iv administration at 5 mg/kg; assay type: ADME, organism-based; design: dose 5 mg/kg, route intravenous; settings: in vivo
[6] = Terminal half life of the compound.; assay type: ADME
[7] = Compound was tested on PMN membranes using LTD4 binding assays; assay type: functional, Homo sapiens
[8] = Compound was tested on dU937 cell membranes using LTC4 binding assays; assay type: functional, Homo sapiens

Structure (SMILES) | IC50 [1] | IC50 [2] | bioavailability [3] | IC50 [4] | clearance [5] | half-life [6] | IC50 [7] | IC50 [8]
O=C(O)CC1(CS[C@H](CCc2ccc(C3(O)CCC3)cc2)c2cccc(/C=C/c3ccc4sc(Cl)c(Cl)c4n3)c2)CC1 | 0.58 nM | 0.29 nM | 15% | 0.65 nM | 0.282 L/h/kg | 2 h | – | –
O=C(O)CC1(CS[C@H](CCc2ccc(F)cc2)c2cccc(/C=C/c3ccc4sc(Cl)c(Cl)c4n3)c2)CC1 | 1.09 nM | 0.65 nM | 5% | 2.16 nM | 0.108 L/h/kg | – | – | –
CC(C)(O)c1ccccc1CC[C@@H](SCC1(CC(=O)O)CC1)c1cccc(C2CC2c2ccc3sc(Cl)c(Cl)c3n2)c1 (some centres not stated) | 10.9 nM | 9.12 nM | – | 15.7 nM | – | – | – | –
CC(C)(O)c1ccccc1CC[C@@H](SCC1(CC(=O)O)CC1)c1cccc(/C=C/c2ccc3sc(Cl)cc3n2)c1 | – | – | 31% | – | 0.072 L/h/kg | – | – | –
O=C(O)CC1(CS[C@H](CCc2ccc(Br)cc2)c2cccc(/C=C/c3ccc4sc(Cl)c(Cl)c4n3)c2)CC1 | 1.95 nM | 1.03 nM | 3% | 4.7 nM | 0.096 L/h/kg | 5.1 h | – | –
CC(C)(O)c1ccccc1CC[C@@H](SCC1(CC(=O)O)CC1)c1cccc(/C=C/c2ccc3sc(Cl)c(Cl)c3n2)c1 | 0.89 nM | 0.34 nM | 29% | 0.55 nM | 0.0342 L/h/kg | 4.2 h | > 3000 nM | > 46000 nM
CC(C)(O)c1ccc(CC[C@@H](SCC2(CC(=O)O)CC2)c2cccc(/C=C/c3ccc4sc(Cl)c(Cl)c4n3)c2)cc1 | 0.56 nM | 0.2 nM | 35% | 0.38 nM | 0.396 L/h/kg | – | – | –
O=C(O)CC1(CS[C@H](CCc2cccc(C3(O)CCC3)c2)c2cccc(/C=C/c3ccc4sc(Cl)c(Cl)c4n3)c2)CC1 | 0.44 nM | 0.24 nM | 13% | 0.47 nM | 0.156 L/h/kg | – | – | –
CC(C)(O)c1ccccc1CC[C@@H](SCC1(CC(=O)O)CC1)c1cccc(/C=C/c2ccc3scc(Cl)c3n2)c1 | 0.54 nM | 1.58 nM | 13% | 1.91 nM | 0.0234 L/h/kg | – | – | –
O=C(O)CC1(CS[C@H](CCc2ccccc2C(O)(C(F)(F)F)C(F)(F)F)c2cccc(/C=C/c3ccc4sc(Cl)c(Cl)c4n3)c2)CC1 | 4.12 nM | 1.21 nM | 2% | 6.42 nM | 0.054 L/h/kg | 11 h | – | –
CC(C)(O)c1ccccc1CC[C@@H](SCC1(CC(=O)O)CC1)c1cccc(/C=C/c2ccc3sc(F)c(F)c3n2)c1 | – | – | 25% | – | 0.0966 L/h/kg | 2.5 h | – | –
O=C(O)CC1(CS[C@H](CCc2ccccc2)c2cccc(/C=C/c3ccc4sc(Cl)c(Cl)c4n3)c2)CC1 | 0.34 nM | 0.37 nM | 13% | 1.63 nM | 0.108 L/h/kg | 4 h | – | –
CC(C)(O)c1ccccc1CC[C@@H](SCC1(CC(=O)O)CC1)c1cccc(COc2ccc3sc(Cl)c(Cl)c3n2)c1 | > 150 nM | > 150 nM | – | > 150 nM | – | – | – | –
O=C(O)CC1(CS[C@H](CCc2ccccc2C(F)(F)F)c2cccc(/C=C/c3ccc4sc(Cl)c(Cl)c4n3)c2)CC1 | – | – | 1% | – | 0.024 L/h/kg | 6.1 h | – | –
O=C(O)CC1(CS[C@H](CCc2ccccc2C2(O)CCC2)c2cccc(/C=C/c3ccc4sc(Cl)c(Cl)c4n3)c2)CC1 | 0.74 nM | 0.34 nM | 22% | 1.05 nM | 0.06 L/h/kg | – | – | –
CC(C)(O)c1ccccc1CC[C@@H](SCC1(CC(=O)O)CC1)c1cccc(/C=C/c2ccc3sccc3n2)c1 | 1.31 nM | 20.4 nM | – | 8.49 nM | – | – | – | –
O=C(O)CC1(CS[C@H](CCc2ccccc2CO)c2cccc(/C=C/c3ccc4sc(Cl)c(Cl)c4n3)c2)CC1 | 0.48 nM | 0.48 nM | – | 0.72 nM | 0.21 L/h/kg | – | – | –
O=C(O)CC1(CS[C@H](CCc2ccccc2Br)c2cccc(/C=C/c3ccc4sc(Cl)c(Cl)c4n3)c2)CC1 | 2.6 nM | 1.93 nM | 3% | 2.43 nM | 0.0276 L/h/kg | 8.8 h | – | –
O=C(O)CC1(CS[C@H](CCc2ccc(C(F)(F)F)cc2)c2cccc(/C=C/c3ccc4sc(Cl)c(Cl)c4n3)c2)CC1 | 3.84 nM | 1.43 nM | 4% | 8.67 nM | 0.084 L/h/kg | – | – | –
CC(C)(O)c1ccccc1CC[C@@H](SCC1(CC(=O)O)CC1)c1cccc(OCc2ccc3sc(Cl)c(Cl)c3n2)c1 | 0.42 nM | 2.2 nM | – | 2.01 nM | – | – | – | –
